The test concerns the target T1, NEDD8-activating enzyme E1 catalytic subunit (Homo sapiens, UniProt Q8TBC4).
T1 sequence (Q8TBC4 whole entry): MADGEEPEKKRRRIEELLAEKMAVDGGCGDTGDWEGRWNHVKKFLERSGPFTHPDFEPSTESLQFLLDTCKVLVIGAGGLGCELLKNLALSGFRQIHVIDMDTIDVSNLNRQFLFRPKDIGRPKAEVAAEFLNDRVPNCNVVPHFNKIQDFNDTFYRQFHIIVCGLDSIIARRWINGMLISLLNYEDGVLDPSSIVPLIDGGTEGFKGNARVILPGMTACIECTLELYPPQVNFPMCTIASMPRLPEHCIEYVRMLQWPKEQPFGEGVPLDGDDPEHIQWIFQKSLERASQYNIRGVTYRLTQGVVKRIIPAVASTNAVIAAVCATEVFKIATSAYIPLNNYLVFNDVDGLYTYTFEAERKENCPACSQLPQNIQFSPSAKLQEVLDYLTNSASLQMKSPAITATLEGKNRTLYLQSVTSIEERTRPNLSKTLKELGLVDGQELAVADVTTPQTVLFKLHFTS
The experiment in a line: Inhibition of recombinant human untagged NAEalpha/N-terminal His-tagged NAEbeta expressed in Bac-to-Bac expression system using FLAG-tagged NEDD8 as substrate after 90 mins in presence of GST-tagged Ubc12 by HTRF assay.
As for `NS(=O)(=O)OC[C@H]1O[C@@H](n2cnc3c(N[C@H]4CCc5ccccc54)ncnc32)[C@H](O)[C@@H]1O`, the IC50 was 100 to 1000 nM.

Regarding `COCCNc1ncnc2c1ncn2[C@@H]1O[C@H](COS(N)(=O)=O)[C@@H](O)[C@H]1O`, the concentration for half-maximal inhibition (IC50) was in the range of 100 to 1000 nM.

As to `NS(=O)(=O)OC[C@H]1O[C@@H](n2cnc3c(NCc4cccs4)ncnc32)[C@H](O)[C@@H]1O`, the IC50 fell in the range of 100 to 1000 nM.

Regarding `NS(=O)(=O)OC[C@H]1O[C@@H](n2cnc3c(NCCc4ccccc4)ncnc32)[C@H](O)[C@@H]1O`, the IC50 lay in the range of 100 to 1000 nM.

In the case of `NS(=O)(=O)NC[C@H]1O[C@@H](n2cnc3c(NCCOc4ccccc4)ncnc32)[C@H](O)[C@@H]1O`, the half-maximal inhibitory concentration (IC50) was no more than 1000 nM.

Consider `NS(=O)(=O)OC[C@H]1O[C@@H](n2cnc3c(NCc4ccc(OC(F)(F)F)cc4)ncnc32)[C@H](O)[C@@H]1O`, for which the IC50 was in the range of 100 to 1000 nM.

Turning to `COc1cccc(CNc2ncnc3c2ncn3[C@@H]2O[C@H](CNS(N)(=O)=O)[C@@H](O)[C@H]2O)c1`, the IC50 fell in the range of 100 to 1000 nM.

Turning to `NS(=O)(=O)OC[C@H]1O[C@@H](n2cnc3c(N[C@@H]4c5ccccc5C[C@@H]4O)ncnc32)[C@H](O)[C@@H]1O`, the IC50 is 100 to 1000 nM.

Consider `NS(=O)(=O)OC[C@H]1O[C@@H](n2ccc3c(N[C@H]4CCc5ccccc54)ncnc32)[C@H](O)[C@@H]1O`, for which the IC50 lay in the range of 100 to 1000 nM.

`NS(=O)(=O)OC[C@H]1O[C@@H](n2cnc3c(NCc4ccc(Cl)cc4)ncnc32)[C@H](O)[C@@H]1O`: the IC50 was 100 to 1000 nM.

Consider `NS(=O)(=O)NC[C@H]1O[C@@H](n2cnc3c(N[C@@H](CO)c4ccccc4)ncnc32)[C@H](O)[C@@H]1O`, for which the IC50 lay within 100 to 1000 nM.

Regarding `Cc1cnc(CNc2ncnc3c2ncn3[C@@H]2O[C@H](COS(N)(=O)=O)[C@@H](O)[C@H]2O)cn1`, the IC50 lay within 100 to 1000 nM.

For `NS(=O)(=O)NC[C@H]1O[C@@H](n2cnc3c(NCc4ccccc4)ncnc32)[C@H](O)[C@@H]1O`, the IC50 fell in the range of 100 to 1000 nM.

As to `NS(=O)(=O)OC[C@H]1O[C@@H](n2cnc3c(NCCN4CCOCC4)ncnc32)[C@H](O)[C@@H]1O`, the IC50 is 100 to 1000 nM.

On to `NS(=O)(=O)NC[C@H]1O[C@@H](n2cnc3c(N[C@@H]4c5ccccc5C[C@@H]4O)ncnc32)[C@H](O)[C@@H]1O`, for which the IC50 was 100 to 1000 nM.

Consider `NS(=O)(=O)OC[C@H]1O[C@@H](n2cnc3c(NCC4CCNCC4)ncnc32)[C@H](O)[C@@H]1O`, for which the IC50 lay within 100 to 1000 nM.

Take `NS(=O)(=O)OC[C@H]1O[C@@H](n2cnc3c(Cc4ccc(F)cc4)ncnc32)[C@H](O)[C@@H]1O`: the IC50 was no more than 1000 nM.

In the case of `NS(=O)(=O)OC[C@H]1O[C@@H](n2cnc3c(Nc4ccc(Cl)cc4)ncnc32)[C@H](O)[C@@H]1O`, the IC50 fell in the range of 100 to 1000 nM.

As to `NS(=O)(=O)NC[C@H]1O[C@@H](n2cnc3c(NCc4ccc5c(c4)OCO5)ncnc32)[C@H](O)[C@@H]1O`, the concentration for half-maximal inhibition (IC50) lay within 100 to 1000 nM.

As to `NS(=O)(=O)OC[C@H]1O[C@@H](n2cnc3c(NCC4CCCCC4)ncnc32)[C@H](O)[C@@H]1O`, the IC50 was in the range of 100 to 1000 nM.

Take `NS(=O)(=O)OC[C@H]1O[C@@H](n2cnc3c(NC(=O)c4ccc(F)cc4)ncnc32)[C@H](O)[C@@H]1O`: the IC50 lay within 100 to 1000 nM.

With `CO[C@@H]1[C@H](O)[C@@H](COS(N)(=O)=O)O[C@H]1n1cnc2c(N[C@H]3CCc4ccccc43)ncnc21`, the IC50 is 100 to 1000 nM.

In the case of `NS(=O)(=O)NC[C@H]1O[C@@H](n2cnc3c(N[C@H]4CCc5ccccc54)ncnc32)[C@H](O)[C@@H]1O`, the IC50 was in the range of 100 to 1000 nM.

With `Cc1cnc(CNc2ncnc3c2ncn3[C@@H]2O[C@H](CNS(N)(=O)=O)[C@@H](O)[C@H]2O)cn1`, the IC50 is no more than 1000 nM.

For `C[C@@]1(O)[C@H](O)[C@@H](COS(N)(=O)=O)O[C@H]1n1cnc2c(N[C@H]3CCc4ccccc43)ncnc21`, the IC50 lay within 100 to 1000 nM.

With `NS(=O)(=O)NC[C@H]1O[C@@H](n2cnc3c(NCc4csc5ccccc45)ncnc32)[C@H](O)[C@@H]1O`, the IC50 is no more than 1000 nM.

Turning to `COCCNc1ncnc2c1ncn2[C@@H]1O[C@H](CNS(N)(=O)=O)[C@@H](O)[C@H]1O`, the IC50 is no more than 1000 nM.

Take `NS(=O)(=O)OC[C@H]1O[C@@H](n2cnc3c(NC(=O)c4ccccc4)ncnc32)[C@H](O)[C@@H]1O`: the IC50 was 100 to 1000 nM.

With `COc1cccc(CNc2ncnc3c2ncn3[C@@H]2O[C@H](COS(N)(=O)=O)[C@@H](O)[C@H]2O)c1`, the IC50 was in the range of 100 to 1000 nM.

Regarding `NS(=O)(=O)CC[C@H]1O[C@@H](n2cnc3c(NC(c4ccccc4)c4ccccc4)ncnc32)[C@H](O)[C@@H]1O`, the IC50 lay in the range of 100 to 1000 nM.

On to `NS(=O)(=O)OC[C@@H]1C[C@@H](O)[C@H](n2cnc3c(N[C@H]4CCc5ccccc54)ncnc32)O1`, for which the IC50 fell in the range of 100 to 1000 nM.

In the case of `NS(=O)(=O)OC[C@H]1O[C@@H](n2cnc3c(N[C@H]4CCc5ccccc54)nc(Cl)nc32)[C@H](O)[C@@H]1O`, the IC50 lay in the range of 100 to 1000 nM.

For the compound `NS(=O)(=O)NC[C@H]1O[C@@H](n2cnc3c(N[C@@H]4CCc5ccccc54)ncnc32)[C@H](O)[C@@H]1O`, the IC50 was 100 to 1000 nM.

Regarding `NS(=O)(=O)OC[C@H]1O[C@@H](n2cnc3c(NCc4cccc5ccccc45)ncnc32)[C@H](O)[C@@H]1O`, the IC50 was in the range of 100 to 1000 nM.

Regarding `COc1ccccc1CNc1ncnc2c1ncn2[C@@H]1O[C@H](COS(N)(=O)=O)[C@@H](O)[C@H]1O`, the IC50 lay within 100 to 1000 nM.

As for `NS(=O)(=O)CC[C@H]1O[C@@H](n2cnc3c(N[C@@H]4c5ccccc5C[C@@H]4O)ncnc32)[C@H](O)[C@@H]1O`, the half-inhibitory concentration (IC50) is 100 to 1000 nM.

For the compound `NS(=O)(=O)OC[C@H]1O[C@@H](n2cnc3c(NCCN4CCN(Cc5ccccc5)CC4)ncnc32)[C@H](O)[C@@H]1O`, the IC50 was 100 to 1000 nM.

Turning to `NS(=O)(=O)CC[C@H]1O[C@@H](n2cnc3c(N[C@H]4CCc5ccccc54)ncnc32)[C@H](O)[C@@H]1O`, the IC50 was 100 to 1000 nM.

For the compound `NS(=O)(=O)OC[C@H]1C[C@@H](n2cnc3c(N[C@H]4CCc5ccccc54)ncnc32)[C@H](O)[C@@H]1O`, the IC50 lay in the range of 100 to 1000 nM.

Regarding `NS(=O)(=O)OC[C@H]1O[C@@H](n2cnc3c(N[C@H](CO)c4ccccc4)ncnc32)[C@H](O)[C@@H]1O`, the IC50 fell in the range of 100 to 1000 nM.

For the compound `NS(=O)(=O)OC[C@H]1O[C@@H](n2cnc3c(N[C@@H](CO)c4ccccc4)ncnc32)[C@H](O)[C@@H]1O`, the IC50 lay within 100 to 1000 nM.

`NS(=O)(=O)OC[C@H]1O[C@@H](n2cnc3c(C#Cc4ccccc4)ncnc32)[C@H](O)[C@@H]1O`: the IC50 lay within 100 to 1000 nM.

With `NS(=O)(=O)OC[C@H]1O[C@@H](n2cnc3c(NCc4ccccc4)ncnc32)[C@H](O)[C@@H]1O`, the IC50 is 100 to 1000 nM.

For `NS(=O)(=O)NC[C@H]1O[C@@H](n2cnc3c(NCc4cccs4)ncnc32)[C@H](O)[C@@H]1O`, the IC50 is 100 to 1000 nM.

`NS(=O)(=O)NC[C@H]1O[C@@H](n2cnc3c(NCC(c4ccccc4)c4ccccc4)ncnc32)[C@H](O)[C@@H]1O`: the IC50 was 100 to 1000 nM.

Regarding `NS(=O)(=O)NC[C@H]1O[C@@H](n2cnc3c(NCc4cccc5ccccc45)ncnc32)[C@H](O)[C@@H]1O`, the IC50 fell in the range of 100 to 1000 nM.

Turning to `NS(=O)(=O)OC[C@H]1O[C@@H](n2cnc3c(NS(=O)(=O)c4ccccc4)ncnc32)[C@H](O)[C@@H]1O`, the IC50 lay within 100 to 1000 nM.

Regarding `Nc1nc(N[C@H]2CCc3ccccc32)c2ncn([C@@H]3O[C@H](COS(N)(=O)=O)[C@@H](O)[C@H]3O)c2n1`, the IC50 fell in the range of 100 to 1000 nM.

Consider `NS(=O)(=O)CC[C@H]1O[C@@H](n2cnc3c(NCc4ccc(Cl)cc4)ncnc32)[C@H](O)[C@@H]1O`, for which the IC50 was in the range of 100 to 1000 nM.

As for `NS(=O)(=O)OC[C@H]1O[C@@H](n2cnc3c(CCc4ccccc4)ncnc32)[C@@H](F)[C@@H]1O` (relative stereo), the IC50 was in the range of 100 to 1000 nM.

The values above are taken from ChEMBL document CHEMBL3880402, “Inhibitors of E1 activating enzymes” (2006).
